Results published in patent US6423727B1, “Certain thiol inhibitors of endothelin-converting enzyme” (Novartis AG, priority 1998, dated 2002).
Ends that are not written are not given here.

target: rabbit antibodies that recognize specifically the carboxyl terminal tryptophan of ET-1; experiment: radioimmunoassay: displacement of [125I]ET-1 binding to the antibodies; details: mean±SEM, n=3-5; 4° C. overnight
Description: Diluted samples (200 μL) obtained from the above enzyme assay are incubated at 4° C. overnight with 25 μL each of [^125I]ET-1 (10,000 cpm/tube) and 1:20,000-fold diluted rabbit antibodies that recognize specifically the carboxyl terminal tryptophan of ET-1. Goat anti-rabbit antibodies coupled to magnetic beads (70 μg) are then added to each tube, and the reaction mixture is further incubated for 30 min at room temperature. The beads are pelleted using a magnetic rack. The supernatant is decanted, and the radioactivity in the pellet is counted in a gamma counter. Total and nonspecific binding are measured in the absence of nonradioactive ET-1 and anti-ET antibodies, respectively.

IC50 for displacement of [125I]ET-1 binding to the antibodies	Molecule
260,000±66,000 fmol	big ET-1: Human big ET-1, the ECE substrate used in the enzyme assay (CSCSSLMDKECVYFCHLDIIWVNTPEHVVPYGLGSPRS; ends and bridges not checked; cysteine pairing not given here; UniProt P05305 53-90, looked up)
21 ± 2 fmol	ET-1: endothelin-1, formed from big ET-1 by ECE; nonradioactive competitor in the radioimmunoassay

system: not given; experiment: not given; details: not given

melting point [°C]	Molecule
190 to 192	CC(C)[C@H](S)C(=O)NC1(C(=O)N[C@@H](Cc2ccc3c(c2)CCCC3)C(=O)O)CCCC1 (stereo in doubt) [2-{[1-(2-Mercapto-3-methyl-butanoylamino)-cyclopentanecarbonyl]-amino}-3-(5,6,7,8-tetrahydro-naphthalen-2-yl)-propionic acid]
179 to 181	COc1ccc(-c2ccc(C[C@H](NC(=O)C3(NC(=O)[C@@H](S)C(C)C)CCCC3)C(=O)O)cc2)cc1 (stereo in doubt) [2-{[1-(2-Mercapto-3-methyl-butanoylamino)-cyclopentanecarbonyl]-amino}-3-(4′-methoxy-biphenyl-4-yl)-propionic acid]
95 to 108	CCC[C@H](S)C(=O)NC1(C(=O)N[C@@H](Cc2ccc(-c3ccno3)cc2)C(=O)O)CCCC1 (stereo in doubt) [3-(4-Isoxazole-5-yl-phenyl)-2-{[1-(2-mercapto-pentanoylamino)-cyclopentanecarbonyl]-amino}-propionic acid]
179 to 181	CC(C)[C@H](S)C(=O)NC1(C(=O)N[C@@H](Cc2ccc(-c3cccs3)cc2)C(=O)O)CCCC1 (stereo in doubt) [2-{[1-(2-Mercapto-3-methyl-butanoylamino)-cyclopentanecarbonyl]-amino}-3-[4-(thiophen-2-yl)-phenyl]-propionic acid]
